Measured values reported in patent US8124760B2, “Pyridyl-triazolopyrimidine derivative or its salt, pesticide containing it and its production process” (Ishihara Sangyo Kaisha, Ltd., priority 2007, dated 2012).
Read-outs that look alike come from different tables or passages of the source.

Assays:
Type in all cases: in vivo
[1] = system: Silverleaf Whitefly (Bemisia Argentifolii); assay: Test on controlling effects against silverleaf whitefly (cucumber seedling spray); conditions: 168 h, hand spray to cucumber seedling, first-second instar nymphs, 7 days after the treatment, 25° C., read-out: protective value
Method: Test on Controlling Effects Against Silverleaf Whitefly (Bemisia Argentifolii) An insecticidal solution prepared to bring the concentration of the compound of the present invention to 200 ppm was applied by a hand spray to cucumber seedling planted in a pot on which first-second instar nymphs of silverleaf whitefly were parasitic, and dried in air. Thereafter, the cucumber seedling was left in a constant temperature chamber at 25° C. with lightening. The number of old instar nymphs was counted 7 days after the treatment, and the protective value (%) was obtained by the following equation. […] Protective value (%)=(1−((Ta×Cb)/(Tb×Ca)))×100 Ta: The number of old instar nymphs after the treatment at the treated cucumber seedling Tb: The number of first-second instar nymphs before the treatment at the treated cucumber seedling Ca: The number of old instar nymphs after the treatment at the untreated cucumber seedling Cb: the number of first-second instar nymphs before the treatment at the untreated cucumber seedling

[2] = system: Brown Planthopper (Nilaparvata lugens); assay: Test on controlling effects against brown planthopper (rice seedling dip)
Text: Test on Controlling Effects Against Brown Planthopper (Nilaparvata lugens)
Rice seedling was dipped for about 10 seconds in an insecticidal solution prepared to bring the concentration of the compound of the present invention to 200 ppm and then dried in air, its root was wrapped with a wet absorbent cotton, and the seedling was put into a test tube. Then, 10 second-third instar nymphs of Brown Planthopper were released therein, and the test tube was covered with a gauze and left in a constant temperature chamber at 25° C. with lightening. On the 5th day after the release, dead nymphs were counted, and the mortality was calculated by the following equation.

[3] = system: Green Peach Aphid (Myzus persicae); assay: Test on controlling effects against green peach aphid (leaf dip); conditions: foliar, 120 h, Japanese radish leaf dipped about 10 seconds, first instar nymphs, 5 days after the treatment, 25° C.
Text: Test on Controlling Effects Against Green Peach Aphid (Myzus persicae)
A Japanese radish leaf was inserted in a test tube in which water was put, and about 20 first instar nymphs of green peach aphid were released on the leaf. On the next day, the number of nymphs parasitic on the leaf was counted, and then the leaf was dipped for about 10 seconds in an insecticidal solution prepared to bring the concentration of the compound of the present invention to 200 ppm, dried in air and left in a constant temperature chamber at 25° C. with lightening. Dead nymphs were counted 5 days after the treatment, and the mortality was calculated by the following equation. The insects dropped from the leaf or presented toxic symptom were counted as dead insects. […] Mortality (%)=(1−(number of survived insects/number of treated insects))×100

[4] = 200 ppm, rice seedling dipped about 10 seconds, second-third instar nymphs, 5th day after the release, 25° C., read-out: mortality

Row | Structure (SMILES) | pest or weed control at 200 ppm [1] | mortality at 200 ppm [2, 4] | mortality at 200 ppm [3] | mortality at 200 ppm [2]
1 | Fc1cc(C(F)(F)F)cnc1-c1ccnc2ncnn12 [compound 5] | ≥ 80% | – | – | –
2 | O=[N+]([O-])c1cc(C(F)(F)F)cnc1-c1ccnc2ncnn12 [compound 12] | ≥ 80% | ≥ 90% | – | –
3 | N#Cc1cc(C(F)(F)F)cnc1-c1ccnc2ncnn12 [compound 14] | ≥ 80% | – | – | –
4 | Cc1cc(-c2ncc(C(F)(F)F)cc2Br)n2ncnc2n1 [compound 15] | ≥ 80% | ≥ 90% | ≥ 90% | –
5 | CCCc1cc(-c2ncc(C(F)(F)F)cc2Cl)n2ncnc2n1 [compound 17] | ≥ 80% | ≥ 90% | ≥ 90% | –
6 | Cc1cc(-c2ccc(C(F)(F)F)cn2)n2ncnc2n1 [compound 18] | ≥ 80% | – | ≥ 90% | –
7 | Cc1cc(-c2ncc(C(F)(F)F)cc2I)n2ncnc2n1 [compound 41] | – | ≥ 90% | ≥ 90% | –
8 | Cc1cc(-c2ncc(C(F)(F)F)cc2C#N)n2ncnc2n1 [compound 43] | – | ≥ 90% | ≥ 90% | –
9 | Cc1cc(-c2ncc(C(F)(F)F)cc2C)n2ncnc2n1 [compound 44] | ≥ 80% | ≥ 90% | ≥ 90% | –
10 | Cc1cc(-c2cc(C(F)(F)F)cc(C(F)(F)F)n2)n2ncnc2n1 [compound 51] | – | – | ≥ 90% | –
11 | Cc1cc(-c2ncc(C(F)(F)F)cc2-c2ccccc2)n2ncnc2n1 [compound 52] | – | ≥ 90% | – | –
12 | Cc1cc(-c2ncc(Cl)cc2C(F)(F)F)n2ncnc2n1 [compound 57] | – | ≥ 90% | – | –
13 | Cc1cc(-c2nc(Cl)c(C(F)(F)F)cc2Cl)n2ncnc2n1 [compound 68] | – | ≥ 90% | ≥ 90% | –
14 | N#Cc1cc(-c2ncc(C(F)(F)F)cc2Cl)n2ncnc2n1 [compound 70] | – | ≥ 90% | – | –
15 | Cc1cc(-c2ncc(C(F)(F)F)cc2[N+](=O)[O-])n2ncnc2n1 [compound 78] | – | – | ≥ 90% | –
16 | CCc1cc(C(F)(F)F)cnc1-c1cc(C)nc2ncnn12 [compound 79] | – | ≥ 90% | ≥ 90% | –

Row | Structure (SMILES) | pest or weed control at 200 ppm [1] | mortality at 200 ppm [2, 4] | mortality at 200 ppm [3] | mortality at 200 ppm [2]
17 | CC(C)c1cc(-c2ncc(C(F)(F)F)cc2Cl)n2ncnc2n1 [compound 80] | ≥ 80% | ≥ 90% | ≥ 90% | –
18 | CCCCc1cc(-c2ncc(C(F)(F)F)cc2Cl)n2ncnc2n1 [compound 83] | – | ≥ 90% | – | –
19 | CC(C)(C)c1cc(-c2ncc(C(F)(F)F)cc2Cl)n2ncnc2n1 [compound 89] | – | ≥ 90% | – | –
20 | FC(F)(F)c1cnc(-c2cc(-c3ccco3)nc3ncnn23)c(Cl)c1 [compound 91] | – | – | – | ≥ 90%
21 | FC(F)(F)c1cnc(-c2cc(C3CC3)nc3ncnn23)c(Br)c1 [compound 94] | ≥ 80% | ≥ 90% | ≥ 90% | –
22 | CC1(c2cc(-c3ncc(C(F)(F)F)cc3Cl)n3ncnc3n2)CC1 [compound 98] | – | ≥ 90% | – | –
23 | FC(F)(F)c1cnc(-c2cc(C3CCC3)nc3ncnn23)c(Cl)c1 [compound 99] | – | ≥ 90% | – | –
24 | Cc1cc(-c2nc(Cl)c(C(F)(F)F)cc2F)n2ncnc2n1 [compound 105] | – | ≥ 90% | – | –
25 | FC(F)(F)c1cnc(-c2cc(C3CCCC3)nc3ncnn23)c(Cl)c1 [compound 107] | – | ≥ 90% | – | –
26 | FC(F)(F)c1cnc(-c2ccnc3ncnn23)c(Br)c1 [compound No. 4, 7-(3-bromo-5-(trifluoromethyl)pyridin-2-yl)-[1,2,4]triazolo[1,5-a]pyrimidine] | ≥ 80% | ≥ 90% | ≥ 90% | –
27 | CCc1cc(-c2ncc(C(F)(F)F)cc2Cl)n2ncnc2n1 [compound No. 16, 7-(3-chloro-5-(trifluoromethyl)pyridin-2-yl)-5-ethyl-[1,2,4]triazolo[1,5-a]pyrimidine] | ≥ 80% | ≥ 90% | ≥ 90% | –
28 | Cc1cc(-c2ncc(C(F)(F)F)cc2Cl)n2ncnc2n1 [compound No. 19, 7-(3-chloro-5-(trifluoromethyl)pyridin-2-yl)-5-methyl-[1,2,4]triazolo[1,5-a]pyrimidine] | ≥ 80% | ≥ 90% | ≥ 90% | –
29 | FC(F)(F)c1cnc(-c2cc(C(F)(F)F)nc3ncnn23)c(Cl)c1 [compound No. 20, 7-(3-chloro-5-(trifluoromethyl)pyridin-2-yl)5-(trifluoromethyl)-[1,2,4]triazolo[1,5-a]pyrimidine] | ≥ 80% | ≥ 90% | ≥ 90% | –
30 | FC(F)(F)c1cnc(-c2cc(C3CC3)nc3ncnn23)c(Cl)c1 [compound No. 82, 7-(3-chloro-5-(trifluoromethyl)pyridin-2-yl)-5-cyclopropyl-[1,2,4]triazolo[1,5-a]pyrimidine] | ≥ 80% | ≥ 90% | ≥ 90% | –
31 | CC(C)c1cc(-c2ncc(C(F)(F)F)cc2Br)n2ncnc2n1 [compound No. 95, 7-(3-bromo-5-(trifluoromethyl)pyridin-2-yl)-5-isopropyl-[1,2,4]triazolo[1,5-a]pyrimidine] | – | ≥ 90% | ≥ 90% | –
